{"source": "paper PMC4979471", "about": "(Cell Death Discovery, 2015)", "experiment_in_all_cases": "Kinase selectivity, P33-radiolabeled assay", "type_in_all_cases": "biochemical", "conditions_in_all_cases": "10 μM ATP", "key": {"[1]": {"molecular_target": "T1, IR (Homo sapiens, UniProt P06213)", "T1 construct": "purchased Reaction Biology Corp", "T1 sequence (P06213 28-1382)": "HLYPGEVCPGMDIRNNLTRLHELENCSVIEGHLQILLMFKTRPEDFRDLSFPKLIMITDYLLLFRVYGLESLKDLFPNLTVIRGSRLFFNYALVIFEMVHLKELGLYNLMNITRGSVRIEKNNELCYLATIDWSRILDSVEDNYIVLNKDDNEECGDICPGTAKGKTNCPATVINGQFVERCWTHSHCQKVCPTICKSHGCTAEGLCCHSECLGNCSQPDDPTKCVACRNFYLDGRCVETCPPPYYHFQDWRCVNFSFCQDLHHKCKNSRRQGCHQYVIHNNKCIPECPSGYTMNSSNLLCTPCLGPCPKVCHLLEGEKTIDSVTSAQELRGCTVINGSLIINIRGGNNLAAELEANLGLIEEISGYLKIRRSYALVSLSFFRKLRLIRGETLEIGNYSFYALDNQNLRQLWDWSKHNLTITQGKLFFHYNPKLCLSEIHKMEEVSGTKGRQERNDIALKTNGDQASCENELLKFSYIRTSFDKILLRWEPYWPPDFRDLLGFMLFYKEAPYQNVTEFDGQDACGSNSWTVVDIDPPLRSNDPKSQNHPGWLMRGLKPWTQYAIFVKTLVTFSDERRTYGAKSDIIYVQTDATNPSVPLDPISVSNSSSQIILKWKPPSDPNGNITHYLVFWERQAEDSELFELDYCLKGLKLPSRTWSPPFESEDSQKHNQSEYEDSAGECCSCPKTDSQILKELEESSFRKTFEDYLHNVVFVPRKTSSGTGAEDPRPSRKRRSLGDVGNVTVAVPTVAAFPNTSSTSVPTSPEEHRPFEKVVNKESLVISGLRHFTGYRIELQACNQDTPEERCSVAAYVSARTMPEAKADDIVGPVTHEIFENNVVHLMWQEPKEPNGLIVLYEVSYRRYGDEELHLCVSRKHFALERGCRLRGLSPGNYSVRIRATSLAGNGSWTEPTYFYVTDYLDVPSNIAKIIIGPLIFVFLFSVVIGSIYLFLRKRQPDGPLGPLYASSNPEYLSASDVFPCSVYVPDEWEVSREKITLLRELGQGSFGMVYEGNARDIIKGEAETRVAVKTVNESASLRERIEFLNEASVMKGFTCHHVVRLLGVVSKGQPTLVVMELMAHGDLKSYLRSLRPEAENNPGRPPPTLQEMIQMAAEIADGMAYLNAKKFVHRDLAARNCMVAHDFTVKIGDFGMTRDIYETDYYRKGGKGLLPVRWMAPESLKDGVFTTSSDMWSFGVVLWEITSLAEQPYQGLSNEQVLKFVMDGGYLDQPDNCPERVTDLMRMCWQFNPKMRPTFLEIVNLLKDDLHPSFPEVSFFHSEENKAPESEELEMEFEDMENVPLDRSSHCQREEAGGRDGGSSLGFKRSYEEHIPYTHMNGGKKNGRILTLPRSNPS", "procedure,_shortened": "(§1)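 Reactions contained 10 μM ATP and 10 μM test compound, each run in duplicate. Kinase activity is expressed as a percentage of DMSO-treated controls.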"}, "[2]": {"molecular_target": "T2, HGK/MAP4K4 (Homo sapiens, UniProt O95819)", "T2 construct": "purchased Reaction Biology Corp", "T2 sequence (O95819 whole entry)": "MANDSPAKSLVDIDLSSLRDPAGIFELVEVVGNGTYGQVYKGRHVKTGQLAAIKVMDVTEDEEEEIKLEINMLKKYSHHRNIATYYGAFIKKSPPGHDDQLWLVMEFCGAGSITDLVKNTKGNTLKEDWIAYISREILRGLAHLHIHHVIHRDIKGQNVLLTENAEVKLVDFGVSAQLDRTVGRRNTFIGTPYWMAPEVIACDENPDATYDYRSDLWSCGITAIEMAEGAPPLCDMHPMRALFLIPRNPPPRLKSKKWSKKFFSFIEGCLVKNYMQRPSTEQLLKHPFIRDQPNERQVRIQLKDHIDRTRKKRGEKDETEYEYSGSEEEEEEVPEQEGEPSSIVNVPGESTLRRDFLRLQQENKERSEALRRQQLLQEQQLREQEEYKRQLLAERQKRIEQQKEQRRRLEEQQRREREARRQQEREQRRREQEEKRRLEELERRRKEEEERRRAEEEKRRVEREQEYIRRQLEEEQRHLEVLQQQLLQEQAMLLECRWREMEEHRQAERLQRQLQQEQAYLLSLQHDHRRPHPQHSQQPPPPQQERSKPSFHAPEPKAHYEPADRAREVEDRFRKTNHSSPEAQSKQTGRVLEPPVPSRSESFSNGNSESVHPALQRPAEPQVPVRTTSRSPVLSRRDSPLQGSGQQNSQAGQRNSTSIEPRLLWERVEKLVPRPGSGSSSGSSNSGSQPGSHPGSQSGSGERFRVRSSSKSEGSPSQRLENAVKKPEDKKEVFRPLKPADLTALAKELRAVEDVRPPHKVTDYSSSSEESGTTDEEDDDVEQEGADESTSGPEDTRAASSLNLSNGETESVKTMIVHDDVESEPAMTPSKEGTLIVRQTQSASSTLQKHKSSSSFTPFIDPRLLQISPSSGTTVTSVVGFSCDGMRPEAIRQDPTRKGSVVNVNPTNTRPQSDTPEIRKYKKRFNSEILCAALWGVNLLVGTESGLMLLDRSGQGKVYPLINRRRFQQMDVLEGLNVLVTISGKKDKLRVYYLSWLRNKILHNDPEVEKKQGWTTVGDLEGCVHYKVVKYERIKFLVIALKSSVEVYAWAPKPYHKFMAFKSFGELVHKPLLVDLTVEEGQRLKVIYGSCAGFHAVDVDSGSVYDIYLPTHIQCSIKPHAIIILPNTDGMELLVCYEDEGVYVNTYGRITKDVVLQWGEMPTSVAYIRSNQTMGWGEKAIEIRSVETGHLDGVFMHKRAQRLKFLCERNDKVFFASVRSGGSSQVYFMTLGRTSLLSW", "procedure,_shortened": "as §1"}, "[3]": {"molecular_target": "T3, TRKC (Homo sapiens, UniProt Q16288)", "T3 construct": "purchased Reaction Biology Corp", "procedure,_shortened": "as §1"}, "[4]": {"molecular_target": "T4, CDK4/cyclin D1 (Homo sapiens, UniProt P11802)", "T4 construct": "purchased Reaction Biology Corp", "T4 sequence (P11802 whole entry)": "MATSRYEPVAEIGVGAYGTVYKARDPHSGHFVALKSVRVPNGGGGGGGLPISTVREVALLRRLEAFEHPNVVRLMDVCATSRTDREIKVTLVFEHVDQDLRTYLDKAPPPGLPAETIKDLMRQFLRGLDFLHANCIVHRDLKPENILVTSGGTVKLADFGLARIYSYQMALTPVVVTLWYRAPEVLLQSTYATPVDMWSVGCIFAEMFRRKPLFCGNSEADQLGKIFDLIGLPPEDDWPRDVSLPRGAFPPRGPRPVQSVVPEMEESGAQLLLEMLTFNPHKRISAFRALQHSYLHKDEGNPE", "T4 sequence (P24385 whole entry partner)": "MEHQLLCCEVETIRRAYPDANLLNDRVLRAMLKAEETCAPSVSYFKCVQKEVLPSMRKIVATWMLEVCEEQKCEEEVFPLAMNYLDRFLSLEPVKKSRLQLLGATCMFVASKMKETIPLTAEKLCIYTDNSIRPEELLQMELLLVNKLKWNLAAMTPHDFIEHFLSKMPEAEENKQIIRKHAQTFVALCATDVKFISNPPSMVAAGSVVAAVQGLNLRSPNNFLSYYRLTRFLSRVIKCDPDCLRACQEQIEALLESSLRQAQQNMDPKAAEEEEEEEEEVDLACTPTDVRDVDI", "procedure,_shortened": "as §1"}, "[5]": {"molecular_target": "T5, DLK/MAP3K12 (Homo sapiens, UniProt Q12852)", "T5 construct": "purchased Reaction Biology Corp", "T5 sequence (Q12852 1-859)": "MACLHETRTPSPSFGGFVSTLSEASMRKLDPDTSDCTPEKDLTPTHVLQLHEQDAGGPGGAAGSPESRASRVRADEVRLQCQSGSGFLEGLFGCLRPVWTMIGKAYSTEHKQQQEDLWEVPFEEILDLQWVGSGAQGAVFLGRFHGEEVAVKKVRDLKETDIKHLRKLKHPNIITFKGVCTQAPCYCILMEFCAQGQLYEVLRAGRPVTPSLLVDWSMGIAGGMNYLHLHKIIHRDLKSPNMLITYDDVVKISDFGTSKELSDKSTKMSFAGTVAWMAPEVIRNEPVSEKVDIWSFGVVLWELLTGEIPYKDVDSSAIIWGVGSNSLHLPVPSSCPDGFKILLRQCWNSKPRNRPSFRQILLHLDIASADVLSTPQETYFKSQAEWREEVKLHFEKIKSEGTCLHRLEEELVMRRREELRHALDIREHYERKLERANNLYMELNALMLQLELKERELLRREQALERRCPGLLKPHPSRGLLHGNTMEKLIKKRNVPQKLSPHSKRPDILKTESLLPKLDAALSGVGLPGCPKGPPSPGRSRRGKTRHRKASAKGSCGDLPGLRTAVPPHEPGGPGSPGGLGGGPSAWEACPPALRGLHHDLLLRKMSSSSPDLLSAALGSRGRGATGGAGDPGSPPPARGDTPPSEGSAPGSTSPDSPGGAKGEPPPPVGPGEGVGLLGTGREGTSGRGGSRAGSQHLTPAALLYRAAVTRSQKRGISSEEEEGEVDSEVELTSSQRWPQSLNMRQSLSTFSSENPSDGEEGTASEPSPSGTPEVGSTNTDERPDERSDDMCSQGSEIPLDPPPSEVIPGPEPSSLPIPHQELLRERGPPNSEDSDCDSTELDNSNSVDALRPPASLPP", "procedure,_shortened": "as §1"}, "[6]": {"molecular_target": "T6, c-Src (Homo sapiens, UniProt P12931)", "T6 construct": "purchased Reaction Biology Corp", "procedure,_shortened": "as §1"}, "[7]": {"molecular_target": "T7, SSTK/TSSK6 (Homo sapiens, UniProt Q9BXA6)", "T7 construct": "purchased Reaction Biology Corp", "T7 sequence (Q9BXA6 whole entry)": "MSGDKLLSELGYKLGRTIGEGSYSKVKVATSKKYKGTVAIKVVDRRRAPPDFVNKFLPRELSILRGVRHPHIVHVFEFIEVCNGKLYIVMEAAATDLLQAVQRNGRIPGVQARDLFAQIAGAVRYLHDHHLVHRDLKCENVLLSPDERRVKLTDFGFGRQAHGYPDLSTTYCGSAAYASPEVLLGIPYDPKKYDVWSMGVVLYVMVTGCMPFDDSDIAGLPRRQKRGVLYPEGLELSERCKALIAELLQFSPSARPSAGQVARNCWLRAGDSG", "procedure,_shortened": "as §1"}, "[8]": {"molecular_target": "T8, MNK1 (Homo sapiens, UniProt Q9BUB5)", "T8 construct": "purchased Reaction Biology Corp", "T8 sequence (Q9BUB5 whole entry)": "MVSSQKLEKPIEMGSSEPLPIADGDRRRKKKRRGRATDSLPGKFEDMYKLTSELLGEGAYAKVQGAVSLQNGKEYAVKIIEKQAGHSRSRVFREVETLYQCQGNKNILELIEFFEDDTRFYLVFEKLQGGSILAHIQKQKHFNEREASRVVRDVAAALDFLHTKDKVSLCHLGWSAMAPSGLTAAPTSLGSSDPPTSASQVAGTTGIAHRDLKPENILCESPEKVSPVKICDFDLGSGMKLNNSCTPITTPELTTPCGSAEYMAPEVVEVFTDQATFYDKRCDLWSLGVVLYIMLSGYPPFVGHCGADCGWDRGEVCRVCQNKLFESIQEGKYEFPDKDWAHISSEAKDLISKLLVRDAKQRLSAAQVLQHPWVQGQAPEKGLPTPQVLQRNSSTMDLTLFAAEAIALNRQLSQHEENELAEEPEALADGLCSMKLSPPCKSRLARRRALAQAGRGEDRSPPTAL", "procedure,_shortened": "as §1"}, "[9]": {"molecular_target": "T9, TAK1 (Homo sapiens, UniProt O43318)", "T9 construct": "purchased Reaction Biology Corp", "T9 sequence (O43318 1-303 limits assumed)": "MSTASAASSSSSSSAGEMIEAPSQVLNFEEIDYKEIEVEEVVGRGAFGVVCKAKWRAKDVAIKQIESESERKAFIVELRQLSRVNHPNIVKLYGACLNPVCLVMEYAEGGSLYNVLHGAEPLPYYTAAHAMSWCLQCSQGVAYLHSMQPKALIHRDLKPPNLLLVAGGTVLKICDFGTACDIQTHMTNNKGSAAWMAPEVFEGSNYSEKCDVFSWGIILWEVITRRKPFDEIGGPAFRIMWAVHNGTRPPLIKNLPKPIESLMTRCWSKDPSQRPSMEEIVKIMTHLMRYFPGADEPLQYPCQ", "T9 sequence (Q15750 437-504 partner limits assumed)": "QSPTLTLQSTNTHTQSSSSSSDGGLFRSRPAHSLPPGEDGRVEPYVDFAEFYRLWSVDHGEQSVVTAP", "procedure,_shortened": "as §1"}, "[10]": {"molecular_target": "T10, TYK1/LTK (Homo sapiens, UniProt P29376)", "T10 construct": "purchased Reaction Biology Corp", "procedure,_shortened": "as §1"}, "[11]": {"molecular_target": "T11, COT1/MAP3K8 (Homo sapiens, UniProt P41279)", "T11 construct": "purchased Reaction Biology Corp", "procedure,_shortened": "as §1"}, "[12]": {"molecular_target": "T12, ROCK1 (Homo sapiens, UniProt Q13464)", "T12 construct": "purchased Reaction Biology Corp", "procedure,_shortened": "as §1"}, "[13]": {"molecular_target": "T13, PKCeta (Homo sapiens, UniProt P24723)", "T13 construct": "purchased Reaction Biology Corp", "T13 sequence (P24723 whole entry)": "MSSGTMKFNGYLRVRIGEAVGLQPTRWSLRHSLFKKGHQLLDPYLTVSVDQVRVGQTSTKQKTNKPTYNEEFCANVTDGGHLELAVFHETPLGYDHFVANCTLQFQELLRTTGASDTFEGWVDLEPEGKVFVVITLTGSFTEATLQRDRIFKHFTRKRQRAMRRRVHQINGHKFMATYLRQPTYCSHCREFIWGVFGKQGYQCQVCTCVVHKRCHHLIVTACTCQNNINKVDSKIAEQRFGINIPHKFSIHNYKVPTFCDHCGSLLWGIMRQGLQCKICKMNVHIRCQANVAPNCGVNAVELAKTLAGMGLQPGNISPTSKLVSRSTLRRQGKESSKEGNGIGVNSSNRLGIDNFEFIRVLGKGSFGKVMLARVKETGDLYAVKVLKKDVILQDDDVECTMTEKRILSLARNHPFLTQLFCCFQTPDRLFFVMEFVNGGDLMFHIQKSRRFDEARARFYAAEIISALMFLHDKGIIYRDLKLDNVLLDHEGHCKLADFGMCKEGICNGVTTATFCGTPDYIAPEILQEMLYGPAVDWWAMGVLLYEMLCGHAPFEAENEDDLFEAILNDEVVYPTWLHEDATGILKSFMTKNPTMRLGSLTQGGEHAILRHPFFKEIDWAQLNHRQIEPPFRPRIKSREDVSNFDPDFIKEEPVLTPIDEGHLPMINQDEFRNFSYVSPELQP", "procedure,_shortened": "as §1"}, "[14]": {"conditions": "read-out: % Enzyme Activity (relative to DMSO controls) AVG"}, "[15]": {"conditions": "read-out: % Enzyme Activity (relative to DMSO controls) Data 1"}, "[16]": {"conditions": "read-out: % Enzyme Activity (relative to DMSO controls) Data 2"}}, "note": "Like-named read-outs stand apart in the source and are kept apart here."}
{"smiles": "CC(C)(C)C(=O)N1N=CC[C@H]1c1ccccc1", "note": "[GSK′963]", "values": [{"measurement": "remaining activity at 10 µM", "setting": "[1]; [14]", "value": 101, "unit": "%"}, {"measurement": "remaining activity at 10 µM", "setting": "[1]; [15]", "value": 104, "unit": "%"}, {"measurement": "remaining activity at 10 µM", "setting": "[1]; [16]", "value": 97.1, "unit": "%"}, {"measurement": "remaining activity at 10 µM", "setting": "[2]; [14]", "value": 95.7, "unit": "%"}, {"measurement": "remaining activity at 10 µM", "setting": "[2]; [15]", "value": 94.5, "unit": "%"}, {"measurement": "remaining activity at 10 µM", "setting": "[2]; [16]", "value": 97, "unit": "%"}, {"measurement": "remaining activity at 10 µM", "setting": "[3]; [14]", "value": 99.2, "unit": "%"}, {"measurement": "remaining activity at 10 µM", "setting": "[3]; [15]", "value": 100, "unit": "%"}, {"measurement": "remaining activity at 10 µM", "setting": "[3]; [16]", "value": 98, "unit": "%"}, {"measurement": "remaining activity at 10 µM", "setting": "[4]; [14]", "value": 96.7, "unit": "%"}, {"measurement": "remaining activity at 10 µM", "setting": "[4]; [15]", "value": 94.5, "unit": "%"}, {"measurement": "remaining activity at 10 µM", "setting": "[4]; [16]", "value": 98.9, "unit": "%"}, {"measurement": "remaining activity at 10 µM", "setting": "[5]; [14]", "value": 104, "unit": "%"}, {"measurement": "remaining activity at 10 µM", "setting": "[5]; [15]", "value": 106, "unit": "%"}, {"measurement": "remaining activity at 10 µM", "setting": "[5]; [16]", "value": 102, "unit": "%"}, {"measurement": "remaining activity at 10 µM", "setting": "[6]; [14]", "value": 109, "unit": "%"}, {"measurement": "remaining activity at 10 µM", "setting": "[6]; [15]", "value": 112, "unit": "%"}, {"measurement": "remaining activity at 10 µM", "setting": "[6]; [16]", "value": 106, "unit": "%"}, {"measurement": "remaining activity at 10 µM", "setting": "[7]; [14]", "value": 99, "unit": "%"}, {"measurement": "remaining activity at 10 µM", "setting": "[7]; [15]", "value": 99.3, "unit": "%"}, {"measurement": "remaining activity at 10 µM", "setting": "[7]; [16]", "value": 98.6, "unit": "%"}, {"measurement": "remaining activity at 10 µM", "setting": "[8]; [14]", "value": 117, "unit": "%"}, {"measurement": "remaining activity at 10 µM", "setting": "[8]; [15]", "value": 111, "unit": "%"}, {"measurement": "remaining activity at 10 µM", "setting": "[8]; [16]", "value": 122, "unit": "%"}, {"measurement": "remaining activity at 10 µM", "setting": "[9]; [14]", "value": 98.8, "unit": "%"}, {"measurement": "remaining activity at 10 µM", "setting": "[9]; [15]", "value": 99.7, "unit": "%"}, {"measurement": "remaining activity at 10 µM", "setting": "[9]; [16]", "value": 97.9, "unit": "%"}, {"measurement": "remaining activity at 10 µM", "setting": "[10]; [14]", "value": 104, "unit": "%"}, {"measurement": "remaining activity at 10 µM", "setting": "[10]; [15]", "value": 104, "unit": "%"}, {"measurement": "remaining activity at 10 µM", "setting": "[10]; [16]", "value": 105, "unit": "%"}, {"measurement": "remaining activity at 10 µM", "setting": "[11]; [14]", "value": 87.1, "unit": "%"}, {"measurement": "remaining activity at 10 µM", "setting": "[11]; [15]", "value": 86.6, "unit": "%"}, {"measurement": "remaining activity at 10 µM", "setting": "[11]; [16]", "value": 87.5, "unit": "%"}, {"measurement": "remaining activity at 10 µM", "setting": "[12]; [14]", "value": 105, "unit": "%"}, {"measurement": "remaining activity at 10 µM", "setting": "[12]; [15]", "value": 103, "unit": "%"}, {"measurement": "remaining activity at 10 µM", "setting": "[12]; [16]", "value": 106, "unit": "%"}, {"measurement": "remaining activity at 10 µM", "setting": "[13]; [14]", "value": 113, "unit": "%"}, {"measurement": "remaining activity at 10 µM", "setting": "[13]; [15]", "value": 112, "unit": "%"}, {"measurement": "remaining activity at 10 µM", "setting": "[13]; [16]", "value": 114, "unit": "%"}]}
